Test results as given in patent US20260125382A1, “COMPOUNDS FOR INHIBITING OR DEGRADING CDK2 AND/OR CDK9 AND MEDICINAL USE THEREOF” (KOREA RESEARCH INSTITUTE OF CHEMICAL TECHNOLOGY, priority 2022, published 2026).

How the values were obtained:
[1] = target: T1, CDK9 (Homo sapiens, UniProt P50750); experiment: CDK protein degradation activity (Western blotting), CDK9; format: cell-based; conditions: MDA-MB-231 cells, 16 hours, Western blot
T1 construct: endogenous in cells; host or cells: MDA-MB-231
T1 sequence (P50750 whole entry): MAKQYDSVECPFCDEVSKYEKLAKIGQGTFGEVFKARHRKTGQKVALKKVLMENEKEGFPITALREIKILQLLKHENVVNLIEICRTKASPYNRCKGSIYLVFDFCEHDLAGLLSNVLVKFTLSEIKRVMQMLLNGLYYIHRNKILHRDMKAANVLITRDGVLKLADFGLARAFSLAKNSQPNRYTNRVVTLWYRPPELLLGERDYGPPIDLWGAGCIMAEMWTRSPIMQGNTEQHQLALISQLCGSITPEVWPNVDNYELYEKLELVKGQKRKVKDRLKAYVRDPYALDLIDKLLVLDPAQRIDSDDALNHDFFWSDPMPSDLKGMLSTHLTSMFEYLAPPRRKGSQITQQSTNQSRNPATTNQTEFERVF
Description: (§1) In order to evaluate the CDK protein degradation activity of the compounds according to the present invention, the following experiment was conducted.
(§2) MDA-MB-231 cells were seeded at 5×10^5 cells per well in a 6-well plate. The next day, the compounds were treated in each well to achieve final concentrations of 100 nM, 1 μM, and 10 μM. For the control group, an equal amount of DMSO was treated in the well as the compound. After 16 hours of treatment, cells were collected, and cell lysates were prepared using Triton X-100 lysis buffer (50 mM HEPES, pH 7.5, 40 mM NaCl, 1% Triton X-100, 1 mM EDTA, 1 mM EGTA, 10 mM pyrophosphate, 10 mM β-glycerophosphate, 50 mM NaF, 1 mM NaVO4, protease inhibitor). Cell lysates were quantified and separated by size using sodium dodecyl sulfate-polyacrylamide gel electrophoresis (SDS-PAGE). Western blotting was then performed using antibodies that recognize CDK2, CDK9, and tubulin, respectively. The results obtained by Western blotting were quantitatively analyzed using the ImageJ program, and representative images according to the experimental results are shown in FIG. 1.

[2] = target: T2, CDK2 (Homo sapiens, UniProt P24941); experiment: CDK protein degradation activity (Western blotting), CDK2; format: cell-based; conditions: MDA-MB-231 cells, 16 hours, Western blot
T2 construct: endogenous in cells; host or cells: MDA-MB-231
Description: as §1, §2

| Compound | Enzyme degradation CDK9 (% remaining) @ 0.1 μM [1] | Enzyme degradation CDK9 (% remaining) @ 1 μM [1] | Enzyme degradation CDK9 (% remaining) @ 10 μM [1] | Enzyme degradation CDK2 (% remaining) @ 0.1 μM [2] | Enzyme degradation CDK2 (% remaining) @ 1 μM [2] | Enzyme degradation CDK2 (% remaining) @ 10 μM [2] |
| --- | --- | --- | --- | --- | --- | --- |
| O=C1CC[C@H](N2C(=O)c3ccc(NCC(=O)N4CCC5(CC(N6CCN(c7ccc(Nc8ncnc9c8ncn9[C@H]8C[C@@H](NC(=O)Cc9ccccc9)C8)cc7)CC6)C5)C4)cc3C2=O)C(=O)N1 (stereo partly drawn) [Compound 265, N-((1s,3s)-3-(6-((4-(4-(6-((2-(2,6-dioxopiperidin-3-yl)-1,3-dioxoisoindolin-5-yl)glycyl)-6-azaspiro[3.4]octan-2-yl)piperazin-1-yl)phenyl)amino)-9H-purin-9-yl)cyclobutyl)-2-phenylacetamide] | 10% | 0% | 0% | 90% | 70% | 70% |
| Cc1cccc(C(=O)N[C@H]2C[C@@H](n3cnc4c(Nc5ccc(N6CCN(CC7CCN(C(=O)COc8ccc9c(c8)C(=O)N([C@H]8CCC(=O)NC8=O)C9=O)CC7)CC6)cc5)ncnc43)C2)n1 [Compound 90, N-((1s,3s)-3-(6-((4-(4-((1-(2-((2-(2,6-dioxopiperidin-3-yl)-1,3-dioxoisoindolin-5-yl)oxy)acetyl)piperidin-4-yl)methyl)piperazin-1-yl)phenyl)amino)-9H-purin-9-yl)cyclobutyl)-6-methylpicolinamide] | 0/0/0% | 0/0/0% | 0/0/0% | 40% | 20% | 10% |
| COc1ccc(C(=O)N2CCC(CC(=O)N3CCN(c4ccc(Nc5ncnc6c5ncn6[C@H]5C[C@@H](NC(=O)Cc6ccccc6)C5)cc4)CC3)CC2)cc1N1CCC(=O)NC1=O [Compound 194, N-((1s,3s)-3-(6-((4-(4-(2-(1-(3-(2,4-dioxotetrahydropyrimidin-1(2H)-yl)-4-methoxybenzoyl)piperidin-4-yl)acetyl)piperazin-1-yl)phenyl)amino)-9H-purin-9-yl)cyclobutyl)-2-phenylacetamide] | 70% | 50% | 40% | 50% | 10% | 10% |
| O=C1CC[C@H](N2C(=O)c3ccc(N4CCN(CC5CCN(c6ccc(Nc7ncnc8c7ncn8[C@H]7C[C@@H](NC(=O)c8c(Cl)cccc8Cl)C7)cc6)CC5)CC4)cc3C2=O)C(=O)N1 [Compound 300, 2,6-dichloro-N-((1s,3s)-3-(6-((4-(4-((4-(2-(2,6-dioxopiperidin-3-yl)-1,3-dioxoisoindolin-5-yl)piperazin-1-yl)methyl)piperidin-1-yl)phenyl)amino)-9H-purin-9-yl)cyclobutyl)benzamide] | 10% | 0% | 0% | 10/10/10% | 10/10/10% | 10/10/10% |
| O=C1CC[C@H](N2C(=O)c3ccc(OCC(=O)N4CCC(CCCN5CCN(c6ccc(Nc7ncnc8c7ncn8[C@H]7C[C@@H](NC(=O)Cc8ccccc8)C7)cc6)CC5)CC4)cc3C2=O)C(=O)N1 [Compound 256, N-((1s,3s)-3-(6-((4-(4-(3-(1-(2-((2-(2,6-dioxopiperidin-3-yl)-1,3-dioxoisoindolin-5-yl)oxy)acetyl)piperidin-4-yl)propyl)piperazin-1-yl)phenyl)amino)-9H-purin-9-yl)cyclobutyl)-2-phenylacetamide] | 60% | 10% | 0% | 40% | 30% | 30% |
| O=C1CC[C@H](n2nnc3ccc(N4CCN(CCCC5CCN(c6ccc(Nc7ncnc8c7ncn8C7CC(NC(=O)Cc8ccccc8)C7)cc6)CC5)CC4)cc3c2=O)C(=O)N1 (stereo partly drawn) [Compound 349, N-((1s,3s)-3-(6-((4-(4-(3-(4-(3-(2,6-dioxopiperidin-3-yl)-4-oxo-3,4-dihydrobenzo[d][1,2,3]triazin-6-yl)piperazin-1-yl)propyl)piperidin-1-yl)phenyl)amino)-9H-purin-9-yl)cyclobutyl)-2-phenylacetamide] | 30% | 20% | 20% | 0/0/0% | 0/0/0% | 0/0/0% |
| Cc1cccc(C(=O)NC2CC(n3cnc4c(NC5CCN(CCCN6CCN(c7cccc8c7C(=O)N([C@H]7CCC(=O)NC7=O)C8=O)CC6)CC5)ncnc43)C2)n1 (stereo partly drawn) [Compound 42, N-((1s,3s)-3-(6-((1-(3-(4-(2-(2,6-dioxopiperidin-3-yl)-1,3-dioxoisoindolin-4-yl)piperazin-1-yl)propyl)piperidin-4-yl)amino)-9H-purin-9-yl)cyclobutyl)-6-methylpicolinamide] | 30% | 0% | 10% | 100% | 60% | 30% |
| O=C1CC[C@H](N2C(=O)c3ccc(OCC(=O)N4CCC5(CC4)CC(N4CCC(c6ccc(Nc7ncnc8c7ncn8[C@H]7C[C@@H](NC(=O)Cc8ccccc8)C7)cc6)CC4)C5)cc3C2=O)C(=O)N1 [Compound 295, N-((1s,3s)-3-(6-((4-(1-(7-(2-((2-(2,6-dioxopiperidin-3-yl)-1,3-dioxoisoindolin-5-yl)oxy)acetyl)-7-azaspiro[3.5]nonan-2-yl)piperidin-4-yl)phenyl)amino)-9H-purin-9-yl)cyclobutyl)-2-phenylacetamide] | 0/0/0% | 0/0/0% | 0/0/0% | 20/20/20% | 20/20/20% | 20/20/20% |
| Cc1cccc(C(=O)N[C@H]2C[C@@H](n3cnc4c(NCc5ccc(OCCCN6CCN(c7ccc8c(c7)C(=O)N(C7CCC(=O)NC7=O)C8=O)CC6)cc5)ncnc43)C2)n1 (stereo partly drawn) [Compound 116, N-((1s,3s)-3-(6-((4-(3-(4-(2-(2,6-dioxopiperidin-3-yl)-1,3-dioxoisoindolin-5-yl)piperazin-1-yl)propoxy)benzyl)amino)-9H-purin-9-yl)cyclobutyl)-6-methylpicolinamide] | 10% | 0% | 0% | 30% | 40% | 50% |
| Cc1cccc(C(=O)N[C@H]2C[C@@H](n3cnc4c(Nc5ccc(N6CCN(CC7CCN(C(=O)C8CN(c9ccc%10c(c9)C(=O)N([C@H]9CCC(=O)NC9=O)C%10=O)C8)CC7)CC6)cc5)ncnc43)C2)n1 [Compound 401, N-((1s,3s)-3-(6-((4-(4-((1-(1-(2-(2,6-dioxopiperidin-3-yl)-1,3-dioxoisoindolin-5-yl)azetidin-3-carbonyl)piperidin-4-yl)methyl)piperazin-1-yl)phenyl)amino)-9H-purin-9-yl)cyclobutyl)-6-methylpicolinamide] | 0/0/0% | 0/0/0% | 0/0/0% | 30% | 20% | 20% |
| O=C1CC[C@@H](c2ccc(OCC(=O)N3CCC(CN4CCN(c5ccc(Nc6ncnc7c6ncn7C6CC(NC(=O)c7cccc(C(F)(F)F)n7)C6)cc5)CC4)CC3)cc2)C(=O)N1 (stereo partly drawn) [Compound 436, N-((1s,3s)-3-(6-((4-(4-((1-(2-(4-(2,6-dioxopiperidin-3-yl)phenoxy)acetyl)piperidin-4-yl)methyl)piperazin-1-yl)phenyl)amino)-9H-purin-9-yl)cyclobutyl)-6-(trifluoromethyl)picolinamide] | 10/10/10% | 10/10/10% | 10/10/10% | 30/30/30% | 30/30/30% | 30/30/30% |
| N-((1s,3s)-3-(6-((4-(4-(2-(1-(1-(2-(2,6-dioxopiperidin-3-yl)-1,3-dioxoisoindolin-5-yl)piperidin-4-carbonyl)piperidin-4-yl)ethyl)piperazin-1-yl)phenyl)amino)-9H-purin-9-yl)cyclobutyl)-2-phenylacetamide [Compound 404] | 0/0/0% | 0/0/0% | 0/0/0% | 50/50/50% | 50/50/50% | 50/50/50% |
